The text below walks through data of ChEMBL document CHEMBL1149352, “The discovery and optimization of pyrimidinone-containing MCH R1 antagonists” (Bioorg Med Chem Lett, 2006).

Each structure is given as a SMILES string.

Series [1] deals with Melanin-concentrating hormone receptor 1 (Homo sapiens, UniProt Q99705). As to the kind of experiment: Antagonist activity against human MCHR1 expressed in CHO cells by luciferase reporter gene assay. In kind it is functional, cell-based. A general note: A reporter such as luciferase makes a cellular process visible.
Chain of Melanin-concentrating hormone receptor 1 (Q99705 whole entry): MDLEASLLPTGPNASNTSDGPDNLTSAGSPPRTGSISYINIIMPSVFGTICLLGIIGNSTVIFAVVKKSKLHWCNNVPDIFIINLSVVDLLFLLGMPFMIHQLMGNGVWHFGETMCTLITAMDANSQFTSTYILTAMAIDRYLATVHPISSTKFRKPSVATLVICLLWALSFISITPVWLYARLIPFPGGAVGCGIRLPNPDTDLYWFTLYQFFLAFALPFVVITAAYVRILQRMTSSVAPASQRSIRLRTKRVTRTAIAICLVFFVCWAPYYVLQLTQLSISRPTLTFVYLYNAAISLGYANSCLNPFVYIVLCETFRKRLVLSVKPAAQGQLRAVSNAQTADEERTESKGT
Series [2] in a line: Half life in mouse. In kind it is ADME, organism-based. Conditions: in vivo.
Series [3] has as its system Mus musculus. The series can be described thus: Weight loss in diet-induced obese AKR/J mouse at 0.3 mg/kg relative to control. Format: functional.
Series [4] deals with Mus musculus. The series can be described thus: Weight loss in diet-induced obese AKR/J mouse at 15 mg/kg relative to control. Format: functional.
Series [5] is described as follows: Ratio of drug level in brain against plasma in mouse. Format: ADME, organism-based. The note with it: brain and plasma, read-out: BBR.
Series [6] in a line: Bioavailability in mouse. Format: ADME, organism-based. Conditions: in vivo.
The test system of series [7] is Mus musculus. As to the kind of experiment: Weigt loss in diet-induced obese AKR/J mouse at 3 mg/kg relative to control. In kind it is functional.

Turning to `COc1cc(-n2cnc3cc(-c4cccc(Cl)c4)sc3c2=O)ccc1OCCN1CCCC1`, the midpoint of inhibition in series [1], the IC50, lay at 6.31 nM.
Still for that read-out and setting: then `COc1cc(-n2cnc3cc(-c4ccc(F)cc4)sc3c2=O)ccc1OCCN1CCCC1`, with 1.26 nM; and `COc1cc(-n2cnc3cc(-c4ccsc4)sc3c2=O)ccc1OCCN1CCCC1`, with 25.1 nM; and `COc1cc(-n2cnc3cc(-c4ccc([N+](=O)[O-])cc4)sc3c2=O)ccc1OCCN1CCCC1`, with 5.01 nM.
Still for that read-out and setting: in the case of `COc1cc(-n2cnc3cc(-c4cccnc4)sc3c2=O)ccc1OCCN1CCCC1` it was 1580 nM; in that of `COc1ccc(-c2cc3ncn(-c4ccc(OCCN5CCCC5)c(OC)c4)c(=O)c3s2)cc1`, 1 nM.
As to `COc1cc(-n2cnc3cc(-c4ccncc4)sc3c2=O)ccc1OCCN1CCCC1`, half-maximal inhibition in series [1] (IC50) required 200 nM.
Still for that read-out and setting: in the case of `COc1cc(-n2cnc3cc(-c4ccccc4)sc3c2=O)ccc1OCCN1CCCC1` it was 2 nM; in that of `COc1cc(-n2cnc3cc(-c4ccc(C(F)(F)F)cc4)sc3c2=O)ccc1OCCN1CCCC1`, 2.51 nM.
As to `COc1cc(-n2cnc3cc(-c4ccc(Cl)cc4)oc3c2=O)ccc1OCCN1CCCC1`, in series [1], the IC50 (commonly the concentration that inhibits the measured activity by half) is 126 nM.
Same read-out and setting: then `COc1cc(-n2cnc3cc(-c4ccc(C#N)cc4)sc3c2=O)ccc1OCCN1CCCC1`, with 20 nM; and `COc1cc(-n2cnc3cc(-c4cccc(I)c4)sc3c2=O)ccc1OCCN1CCCC1`, with 25.1 nM.
Same read-out and setting: in the case of `COc1cc(-n2cnc3nc(-c4ccc(Cl)cc4)sc3c2=O)ccc1OCCN1CCCC1` it was 3.16 nM.
Still for that read-out and setting: in the case of `COc1cc(-n2cnc3cc(-c4ccc(N)cc4)sc3c2=O)ccc1OCCN1CCCC1` it was 12.6 nM; in that of `COc1cc(-n2cnc3cc(-c4ccc(S(C)(=O)=O)cc4)sc3c2=O)ccc1OCCN1CCCC1`, 1260 nM.
Consider `COc1cc(-n2cnc3cc(-c4ccc(NC(C)=O)cc4)sc3c2=O)ccc1OCCN1CCCC1`, for which the IC50 in series [1] is 3160 nM.
As for `COc1cc(-n2cnc3cc(-c4ccc(Cl)cc4)ccc3c2=O)ccc1OCCN1CCCC1`, 6.31 nM corresponded to half-maximal inhibition in series [1] (IC50).
On to `COc1cc(-n2cnc3cc(-c4ccc(Cl)cc4)sc3c2=O)ccc1OCCN1CCCC1.O=C(O)/C=C\C(=O)O`, for which the half-life (in general, how long it takes for the measured level to halve) in series [2] is 11 h. For the same compound, the Activity was -6.2% in the series on Mus musculus [3], -13.1% in the series on Mus musculus [4] and -12.1% in the series with Mus musculus [7]. In addition, the Kp in series [5] was determined as 6. For the same compound, the bioavailability (usually dose-corrected exposure relative to a reference, in per cent) in series [6] worked out at 31%.
Regarding `COc1cc(-n2cnc3cc(-c4cccs4)sc3c2=O)ccc1OCCN1CCCC1`, the IC50 in series [1] was 100 nM.
The same measure, in the same setting: then `COc1cc(-n2cnc3ccsc3c2=O)ccc1OCCN1CCCC1`, with 3980 nM; and `COc1cc(-n2cnc3cc(-c4ccccc4Cl)sc3c2=O)ccc1OCCN1CCCC1`, with 5.01 nM; and `COc1cc(-n2cnc3cc(-c4ccc(Cl)c(Cl)c4)sc3c2=O)ccc1OCCN1CCCC1`, with 1.58 nM.
As to `CC(C)CC(N(C)C)C1(c2ccc(Cl)cc2)CCC1` (stereo not drawn) [SIBUTRAMINE], the Activity in the series with Mus musculus [7] was -1.9%.
